{"source": "patent US20250367225A1", "about": "(priority 2022, published 2025)", "key": {"[1]": {"system": "SARS-COV-2 Omicron BA.1 variant (B.1.1.529)", "parameters": "species or system BALB/c mice", "conditions": "mouse, in vivo"}, "[2]": {"system": "SARS-COV-2 Delta variant (B.1.617.2)", "parameters": "species or system Syrian hamsters", "conditions": "hamster, in vivo"}}}
{"smiles": "CCCCCCCCCCCCCC[C@@H](O)[C@@H](O)[C@H](CO[C@H]1O[C@H](CO)[C@H](O)[C@H](O)[C@H]1O)NC(=O)CCCCCCCCCCc1ccc(F)cc1", "note": "[7DW8-5]", "values": [{"measurement": "body weight", "setting": "[1]", "result": "significant weight gain"}, {"measurement": "virus replication in lung tissues", "setting": "[1]", "result": "complete inhibition"}, {"measurement": "viral load in lung tissues", "setting": "[2]", "result": "significantly decreased"}, {"measurement": "viral load in nasal tissues", "setting": "[2]", "result": "significantly decreased"}]}
